Assays:
Assay in all cases: Standardized radiometric kinase assays, percentage of activity at 0.5 μM;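 note: Read-out is ³³P-labelled substrate protein phosphorylated by each kinase, captured on filters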
[1] = target: each individual kinase of the panel (Homo sapiens, UniProt O14757); details: for % Activity: CHK1(h)
[2] = target: each individual kinase of the panel (Homo sapiens, UniProt O15530); details: for % Activity: PDK1(h)
[3] = target: each individual kinase of the panel (Homo sapiens, UniProt O43293); details: for % Activity: ZIPK(h)
[4] = target: each individual kinase of the panel (Homo sapiens, UniProt P04049); details: for % Activity: c-RAF(h)
[5] = target: each individual kinase of the panel (Homo sapiens, UniProt P06213); details: for % Activity: IR(h)
[6] = target: each individual kinase of the panel (Homo sapiens, UniProt P07333)
[7] = target: each individual kinase of the panel (Homo sapiens, UniProt P08581); details: for % Activity: Met(h)
[8] = target: each individual kinase of the panel (Homo sapiens, UniProt P10721, V560G); details: for % Activity: cKit(V560G)(h)
[9] = target: each individual kinase of the panel (Homo sapiens, UniProt P35968); details: for % Activity: KDR(h)
[10] = target: each individual kinase of the panel (Homo sapiens, UniProt P43403); details: for % Activity: ZAP-70(h)
[11] = target: each individual kinase of the panel (Homo sapiens, UniProt P50613); details: for % Activity: CDK7/cyclinH/MAT1(h)
[12] = target: each individual kinase of the panel (Homo sapiens, UniProt P51812); details: for % Activity: Rsk2(h)
[13] = target: each individual kinase of the panel (Homo sapiens, UniProt P78368); details: for % Activity: CK1γ2(h)
[14] = target: each individual kinase of the panel (Homo sapiens, UniProt Q00534)
[15] = target: each individual kinase of the panel (Homo sapiens, UniProt Q02750); details: for % Activity: MEK1(h)
[16] = target: each individual kinase of the panel (Homo sapiens, UniProt Q06418); details: for % Activity: Rse(h)
[17] = target: each individual kinase of the panel (Homo sapiens, UniProt Q13043); details: for % Activity: MST1(h)
[18] = target: each individual kinase of the panel (Homo sapiens, UniProt Q14012); details: for % Activity: CaMKI(h)
[19] = target: each individual kinase of the panel (Homo sapiens, UniProt Q15418); details: for % Activity: Rsk1(h)
[20] = target: each individual kinase of the panel (Homo sapiens, UniProt Q86V86); details: for % Activity: Pim-3(h)
[21] = target: each individual kinase of the panel (Homo sapiens, UniProt Q92630); details: for % Activity: DYRK2(h)
[22] = target: each individual kinase of the panel (Homo sapiens, UniProt Q9H4B4)
[23] = target: each individual kinase of the panel (Homo sapiens, UniProt Q9P1W9); details: for % Activity: Pim-2(h)
[24] = target: each individual kinase of the panel (Homo sapiens, UniProt Q9UM73)
[25] = target: each individual kinase of the panel (Homo sapiens, UniProt Q9Y6M4); details: for % Activity: CK1γ3(h)
[26] = target: each individual kinase of the panel (Homo sapiens, UniProt P00533, L858R); details: for % Activity: EGFR(L858R)(h)
[27] = target: each individual kinase of the panel (Homo sapiens, UniProt P00533, L858R/T790M); details: for % Activity: EGFR(T790M,L858R)(h)
[28] = target: each individual kinase of the panel (Homo sapiens, UniProt P17612); details: for % Activity: PKA(h)
[29] = target: each individual kinase of the panel (Homo sapiens, UniProt Q9HBH9); details: for % Activity: Mnk2(h)

each individual kinase of the panel (Homo sapiens, UniProt P35968), sequence (P35968 20-1356 limits assumed): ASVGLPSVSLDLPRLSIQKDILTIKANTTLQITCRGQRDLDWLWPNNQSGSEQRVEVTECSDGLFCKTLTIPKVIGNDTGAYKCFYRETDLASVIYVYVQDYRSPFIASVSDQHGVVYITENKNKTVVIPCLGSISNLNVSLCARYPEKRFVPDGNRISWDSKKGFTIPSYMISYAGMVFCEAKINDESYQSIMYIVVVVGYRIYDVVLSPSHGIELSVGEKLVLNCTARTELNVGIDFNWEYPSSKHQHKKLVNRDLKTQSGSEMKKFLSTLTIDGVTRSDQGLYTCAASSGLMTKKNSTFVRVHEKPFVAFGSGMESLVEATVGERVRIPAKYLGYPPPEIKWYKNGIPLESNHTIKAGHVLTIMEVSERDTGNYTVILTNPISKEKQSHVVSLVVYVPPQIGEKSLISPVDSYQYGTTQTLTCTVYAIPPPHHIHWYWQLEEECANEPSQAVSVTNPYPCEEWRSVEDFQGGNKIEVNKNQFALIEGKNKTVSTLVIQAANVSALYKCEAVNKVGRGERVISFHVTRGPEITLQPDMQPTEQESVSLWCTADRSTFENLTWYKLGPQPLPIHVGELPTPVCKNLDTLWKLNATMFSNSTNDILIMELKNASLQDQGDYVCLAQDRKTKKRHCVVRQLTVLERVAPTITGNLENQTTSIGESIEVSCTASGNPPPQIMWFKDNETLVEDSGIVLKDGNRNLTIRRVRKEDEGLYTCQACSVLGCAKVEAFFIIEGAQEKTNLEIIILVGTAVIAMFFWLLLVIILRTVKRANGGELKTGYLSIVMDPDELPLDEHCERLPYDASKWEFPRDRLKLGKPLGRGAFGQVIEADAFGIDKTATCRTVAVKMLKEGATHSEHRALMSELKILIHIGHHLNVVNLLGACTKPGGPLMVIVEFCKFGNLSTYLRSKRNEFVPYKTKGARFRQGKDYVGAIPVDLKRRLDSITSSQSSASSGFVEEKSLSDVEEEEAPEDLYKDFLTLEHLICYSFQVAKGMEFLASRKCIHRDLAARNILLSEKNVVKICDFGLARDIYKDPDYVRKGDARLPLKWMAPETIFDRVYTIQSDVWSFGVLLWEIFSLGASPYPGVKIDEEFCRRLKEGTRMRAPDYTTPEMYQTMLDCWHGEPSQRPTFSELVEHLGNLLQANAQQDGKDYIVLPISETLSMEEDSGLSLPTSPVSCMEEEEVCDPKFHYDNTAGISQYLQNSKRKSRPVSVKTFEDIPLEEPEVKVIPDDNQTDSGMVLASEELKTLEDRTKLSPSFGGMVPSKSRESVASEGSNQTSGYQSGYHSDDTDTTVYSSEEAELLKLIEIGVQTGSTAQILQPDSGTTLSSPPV
each individual kinase of the panel (Homo sapiens, UniProt P07333), sequence (P07333 20-972 limits assumed): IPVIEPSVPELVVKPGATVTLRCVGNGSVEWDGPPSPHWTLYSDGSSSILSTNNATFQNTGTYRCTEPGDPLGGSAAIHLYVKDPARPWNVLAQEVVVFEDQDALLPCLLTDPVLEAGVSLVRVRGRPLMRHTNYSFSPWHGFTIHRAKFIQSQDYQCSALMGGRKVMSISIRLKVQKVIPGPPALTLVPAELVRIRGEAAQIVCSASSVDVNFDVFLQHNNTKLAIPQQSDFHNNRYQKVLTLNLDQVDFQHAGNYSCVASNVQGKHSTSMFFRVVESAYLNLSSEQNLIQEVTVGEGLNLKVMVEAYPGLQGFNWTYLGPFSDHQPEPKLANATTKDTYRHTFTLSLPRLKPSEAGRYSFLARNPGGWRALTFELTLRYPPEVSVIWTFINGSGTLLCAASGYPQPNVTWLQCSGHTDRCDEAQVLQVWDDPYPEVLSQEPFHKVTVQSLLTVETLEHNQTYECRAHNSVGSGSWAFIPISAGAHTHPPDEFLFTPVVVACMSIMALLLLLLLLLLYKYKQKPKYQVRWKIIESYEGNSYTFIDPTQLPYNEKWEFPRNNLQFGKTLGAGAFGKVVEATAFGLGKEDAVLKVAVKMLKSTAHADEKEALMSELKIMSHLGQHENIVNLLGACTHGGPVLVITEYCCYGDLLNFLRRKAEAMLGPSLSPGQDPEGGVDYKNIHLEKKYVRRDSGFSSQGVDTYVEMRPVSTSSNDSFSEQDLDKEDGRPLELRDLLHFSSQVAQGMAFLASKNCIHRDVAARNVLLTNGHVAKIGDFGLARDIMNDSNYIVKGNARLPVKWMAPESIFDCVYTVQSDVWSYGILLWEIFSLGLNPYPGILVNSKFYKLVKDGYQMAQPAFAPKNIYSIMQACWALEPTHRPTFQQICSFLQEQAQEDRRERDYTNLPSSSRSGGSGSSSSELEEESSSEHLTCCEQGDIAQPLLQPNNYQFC
each individual kinase of the panel (Homo sapiens, UniProt P10721, V560G), sequence (P10721 26-976 V560G limits assumed): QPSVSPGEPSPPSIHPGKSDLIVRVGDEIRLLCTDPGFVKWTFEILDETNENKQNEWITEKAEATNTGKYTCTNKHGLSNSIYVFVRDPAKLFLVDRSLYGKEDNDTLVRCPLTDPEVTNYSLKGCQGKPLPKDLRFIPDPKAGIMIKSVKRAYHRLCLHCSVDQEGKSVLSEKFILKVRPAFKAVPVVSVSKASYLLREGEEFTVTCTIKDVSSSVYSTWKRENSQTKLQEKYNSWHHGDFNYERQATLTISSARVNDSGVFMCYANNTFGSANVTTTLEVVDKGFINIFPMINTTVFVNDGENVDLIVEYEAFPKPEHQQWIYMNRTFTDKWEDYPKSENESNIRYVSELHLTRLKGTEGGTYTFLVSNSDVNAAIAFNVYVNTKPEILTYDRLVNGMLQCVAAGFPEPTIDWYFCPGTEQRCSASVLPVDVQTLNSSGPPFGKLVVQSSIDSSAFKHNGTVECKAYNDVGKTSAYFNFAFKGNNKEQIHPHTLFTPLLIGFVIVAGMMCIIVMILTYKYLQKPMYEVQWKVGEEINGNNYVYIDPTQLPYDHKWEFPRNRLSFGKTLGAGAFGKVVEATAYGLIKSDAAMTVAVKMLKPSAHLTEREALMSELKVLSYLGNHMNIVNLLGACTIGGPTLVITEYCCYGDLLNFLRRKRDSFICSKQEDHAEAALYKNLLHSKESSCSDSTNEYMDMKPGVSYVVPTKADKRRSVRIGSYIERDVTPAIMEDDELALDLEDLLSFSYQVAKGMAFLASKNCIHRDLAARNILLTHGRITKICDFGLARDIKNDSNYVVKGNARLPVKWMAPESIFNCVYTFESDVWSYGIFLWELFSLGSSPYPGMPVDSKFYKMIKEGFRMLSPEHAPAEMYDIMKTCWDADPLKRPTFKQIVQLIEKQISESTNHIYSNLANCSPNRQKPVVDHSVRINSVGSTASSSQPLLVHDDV
each individual kinase of the panel (Homo sapiens, UniProt Q9UM73), sequence (Q9UM73 19-1620 limits assumed): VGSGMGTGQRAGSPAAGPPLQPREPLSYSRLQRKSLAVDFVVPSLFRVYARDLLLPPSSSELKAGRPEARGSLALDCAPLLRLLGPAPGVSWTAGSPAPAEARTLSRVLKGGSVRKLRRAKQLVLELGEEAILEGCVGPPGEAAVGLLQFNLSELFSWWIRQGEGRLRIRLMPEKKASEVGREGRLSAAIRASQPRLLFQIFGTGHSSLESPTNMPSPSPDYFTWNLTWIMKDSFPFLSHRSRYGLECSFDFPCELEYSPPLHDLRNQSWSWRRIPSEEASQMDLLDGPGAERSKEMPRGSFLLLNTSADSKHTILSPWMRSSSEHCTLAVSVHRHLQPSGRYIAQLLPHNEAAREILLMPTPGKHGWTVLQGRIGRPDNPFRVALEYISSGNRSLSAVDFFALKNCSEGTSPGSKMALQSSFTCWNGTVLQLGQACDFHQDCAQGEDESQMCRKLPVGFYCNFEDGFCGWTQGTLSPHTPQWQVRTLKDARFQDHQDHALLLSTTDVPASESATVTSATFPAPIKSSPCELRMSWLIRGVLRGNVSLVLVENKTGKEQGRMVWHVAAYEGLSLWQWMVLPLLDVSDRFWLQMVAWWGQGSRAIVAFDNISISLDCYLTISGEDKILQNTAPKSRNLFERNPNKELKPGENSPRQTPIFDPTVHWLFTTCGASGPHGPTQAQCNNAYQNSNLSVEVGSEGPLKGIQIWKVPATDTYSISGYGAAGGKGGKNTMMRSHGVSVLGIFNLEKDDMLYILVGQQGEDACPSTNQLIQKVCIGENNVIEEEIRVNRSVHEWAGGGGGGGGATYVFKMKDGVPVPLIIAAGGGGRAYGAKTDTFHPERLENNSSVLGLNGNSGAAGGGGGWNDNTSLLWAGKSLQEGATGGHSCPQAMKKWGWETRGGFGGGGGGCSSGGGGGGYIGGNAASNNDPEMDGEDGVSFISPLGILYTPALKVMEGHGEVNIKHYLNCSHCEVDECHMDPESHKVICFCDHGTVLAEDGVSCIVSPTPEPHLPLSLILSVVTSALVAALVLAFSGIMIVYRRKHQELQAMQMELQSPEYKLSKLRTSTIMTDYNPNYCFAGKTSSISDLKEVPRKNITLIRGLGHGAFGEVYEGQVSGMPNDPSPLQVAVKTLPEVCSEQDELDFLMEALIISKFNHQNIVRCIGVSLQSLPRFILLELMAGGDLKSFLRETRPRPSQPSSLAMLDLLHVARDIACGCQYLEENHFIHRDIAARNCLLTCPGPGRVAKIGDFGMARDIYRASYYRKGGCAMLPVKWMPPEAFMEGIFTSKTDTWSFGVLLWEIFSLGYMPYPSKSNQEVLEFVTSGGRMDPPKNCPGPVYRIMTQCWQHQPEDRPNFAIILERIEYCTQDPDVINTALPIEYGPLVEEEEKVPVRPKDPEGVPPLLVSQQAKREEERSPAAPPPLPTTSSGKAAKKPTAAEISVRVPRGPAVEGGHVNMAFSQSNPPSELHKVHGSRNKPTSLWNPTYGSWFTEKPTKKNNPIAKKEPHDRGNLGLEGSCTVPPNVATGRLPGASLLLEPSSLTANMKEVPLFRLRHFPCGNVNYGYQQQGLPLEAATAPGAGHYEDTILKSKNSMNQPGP

C#Cc1cccc(Nc2nc3cc(C(=O)O)ccc3c3cncnc23)c1 [drawing 1135]
CHK1 percentage of activity [1]: 1% | PDK1 percentage of activity [2]: −10% | DAPK3 percentage of activity [3]: 88% | RAF1 percentage of activity [4]: 31% | INSR percentage of activity [5]: −5% | CSF1R percentage of activity [6]: −74% | MET percentage of activity [7]: −22% | cKit(V560G) percentage of activity [8]: −11% | VEGFR2 percentage of activity [9]: 33% | ZAP70 percentage of activity [10]: −18% | CDK7/cyclinH/MAT1 percentage of activity [11]: 23% | RPS6KA3 percentage of activity [12]: 34% | CK1 gamma 2 percentage of activity [13]: −7% | CDK6/cyclinD3 percentage of activity [14]: −8% | MEK1 percentage of activity [15]: −36% | TYRO3 percentage of activity [16]: −9% | MST1 percentage of activity [17]: 4% | CAMK1 percentage of activity [18]: −4% | RPS6KA1 percentage of activity [19]: 22% | PIM3 percentage of activity [20]: 13% | DYRK2 percentage of activity [21]: 50% | PLK3 percentage of activity [22]: −6% | PIM2 percentage of activity [23]: 25% | ALK percentage of activity [24]: −12% | CK1 gamma 3 percentage of activity [25]: 0%

NC(=O)c1ccc2c(c1)nc(Nc1cccc(Cl)c1)c1ccncc12 [drawing 1138]
CHK1 percentage of activity [1]: −1% | PDK1 percentage of activity [2]: 7% | DAPK3 percentage of activity [3]: 34% | EGFR(L858R) percentage of activity [26]: 63% | EGFR(T790M, L858R) percentage of activity [27]: 48% | RAF1 percentage of activity [4]: 62% | INSR percentage of activity [5]: 0% | CSF1R percentage of activity [6]: 52% | MET percentage of activity [7]: −6% | cKit(V560G) percentage of activity [8]: 75% | PKA percentage of activity [28]: −1% | VEGFR2 percentage of activity [9]: 15% | ZAP70 percentage of activity [10]: −2% | CDK7/cyclinH/MAT1 percentage of activity [11]: 57% | CK1 gamma 2 percentage of activity [13]: −5% | CDK6/cyclinD3 percentage of activity [14]: 6% | MEK1 percentage of activity [15]: 8% | TYRO3 percentage of activity [16]: 2% | MST1 percentage of activity [17]: 15% | CAMK1 percentage of activity [18]: 4% | RPS6KA1 percentage of activity [19]: 55% | DYRK2 percentage of activity [21]: 82% | PLK3 percentage of activity [22]: 0% | Mnk2 percentage of activity [29]: 32% | ALK percentage of activity [24]: −2% | CK1 gamma 3 percentage of activity [25]: −5%

NC(=O)c1cccc2c1nc(Nc1cccc(Cl)c1)c1ccncc12 [B]
% Activity [1]: 91% | % Activity [2]: 88% | % Activity [3]: 19% | % Activity [26]: 56% | % Activity [27]: 59% | % Activity [4]: 69% | % Activity [5]: 95% | % Activity ([6]; Fms(h)): 42% | % Activity [7]: 96% | % Activity [8]: 33% | % Activity [28]: 100% | % Activity [9]: 75% | % Activity [10]: 106% | % Activity [11]: 17% | % Activity [12]: 40% | % Activity [13]: 63% | % Activity ([14]; CDK6/cyclinD3(h)): 63% | % Activity [15]: 88% | % Activity [16]: 87% | % Activity [17]: 80% | % Activity [18]: 62% | % Activity [19]: 21% | % Activity [20]: 65% | % Activity [21]: 5% | % Activity ([22]; Plk3(h)): 102% | % Activity [29]: 33% | % Activity [23]: 46% | % Activity ([24]; ALK(h)): 100% | % Activity [25]: 38%

Clc1ccccc1Nc1nc2c(-c3nnc[nH]3)cccc2c2cnccc12 [A]
% Activity [1]: 108% | % Activity [2]: 101% | % Activity [3]: 100% | % Activity [26]: 56% | % Activity [27]: 20% | % Activity [4]: 66% | % Activity [5]: 112% | % Activity [7]: 22% | % Activity [8]: 38% | % Activity [28]: 97% | % Activity [9]: 43% | % Activity [10]: 97% | % Activity [11]: 50% | % Activity [12]: 13% | % Activity [13]: 17% | % Activity [15]: 72% | % Activity [16]: 109% | % Activity [17]: 44% | % Activity [18]: 90% | % Activity [19]: 6% | % Activity [20]: 12% | % Activity [21]: −4% | % Activity [29]: 54% | % Activity [23]: 2% | % Activity [25]: 21%

From patent publication US8168651B2, “Protein kinase modulators” (Cylene Pharmaceuticals, Inc., priority 2008, dated 2012)
